Results from PubChem BioAssay AID1549 (Sanford-Burnham Center for Chemical Genomics, 2009).
Calls of active or inactive are those of the source. No rule for the calls is given here.

molecular target: Influenza A virus M2 proton channel (A/TW/4845/1999 H1N1); experiment: M2 proton channel binding, NMR based, influenza A virus H1N1 strain (AID 1549); conditions: NMR binding screen, M2 protein

Row | Structure (SMILES) | Kd
1 | OCCOc1ccc(C2=NCCO2)cc1 | > 4 mM (inactive)
2 | CC[C@@H]1[C@@H](O)N2C3C[C@H]1C1C(O)[C@]4(C[C@@H]12)c1ccccc1N(C)[C@@H]34 (stereo partly specified) | > 4 mM (inactive)
3 | CC(C)=CCC[C@](C)(O)C1CC=C(C)CC1 (stereo partly specified) | > 4 mM (inactive)
4 | O=C(Nc1nccs1)c1ccc(=O)[nH]n1 | > 4 mM (inactive)
5 | CC1=[N+]([O-])C2(N)CCc3c(no[n+]3[O-])C2(O)C1 (stereo unspecified) | > 4 mM (inactive)
6 | C[C@]12CCC3C(CC[C@]4(O)C[C@@H](O)CC[C@]34C=O)[C@@]1(O)CCC2C1=CC(=O)OC1 (stereo partly specified) | > 4 mM (inactive)
7 | Oc1ccccc1C(=S)N1CCCCCC1 | > 4 mM (inactive)
8 | O=C(O)c1cc2ccccc2[nH]1 | > 4 mM (inactive)
9 | Cc1cc(/C=N/O)nc(=O)[nH]1 | > 4 mM (inactive)
10 | O=C(O)C1CCN(S(=O)(=O)c2cccs2)CC1 | > 4 mM (inactive)
11 | Cn1c(=O)n(C)c2nc([N+](=O)[O-])c(Cl)cc21 | > 4 mM (inactive)
12 | OCCNC(=S)Nc1ccccc1 | > 4 mM (inactive)
13 | O=C1c2ccccc2C(=O)c2c1ccc(O)c2O | > 4 mM (inactive)
14 | Nc1ccc(OC(F)(F)F)cc1 | > 4 mM (inactive)
15 | O=C(Nc1ccc(N2CCOCC2)cc1)C1CC1 | > 4 mM (inactive)
16 | O=S1(=O)CCC(NC(=S)N2CCCCC2)C1 (stereo unspecified) | > 4 mM (inactive)
17 | CCCc1ncc(C(O)c2cccc3ccccc23)n1C (stereo unspecified) | > 4 mM (inactive)
18 | O=C(c1ccncc1)N1CCN(C(=O)c2ccncc2)CC1 | > 4 mM (inactive)
19 | CC(N)C(=O)c1ccco1 (stereo unspecified) | > 4 mM (inactive)
20 | O=C(O)c1ccc2c(c1)CCO2 | > 4 mM (inactive)
21 | NC(=O)C(=O)NCc1ccc(Cl)cc1 | > 4 mM (inactive)

Row | Structure (SMILES) | Kd
22 | COc1ccc2c(c1)C(NC(C)=O)C(=O)N2C (stereo unspecified) | > 4 mM (inactive)
23 | O=C(Nn1cnnc1)c1cc2c(s1)CCCC2 | > 4 mM (inactive)
24 | Cc1nc2ccc(C(=O)O)cc2[nH]1 | > 4 mM (inactive)
25 | c1ccc(C[N+]23CCN(CC2)c2ccccc23)cc1 | > 4 mM (inactive)
26 | O=C(/C=C/c1ccccc1)c1ccc(O[C@@H]2O[C@H](CO)[C@@H](O)[C@H](O)[C@H]2O)cc1O | > 4 mM (inactive)
27 | O=C(C1CCNCC1)N1CCCCCC1 | > 4 mM (inactive)
28 | O=C1NC(=S)NC(=O)C1=Cc1ccncc1 | > 4 mM (inactive)
29 | O=C1C2C3C=CC(C3)C2C(=O)N1c1nccs1 (stereo unspecified) | > 4 mM (inactive)
30 | CC(=O)Nc1cccc(N2CCCC2=O)c1 | > 4 mM (inactive)
31 | Cc1onc(-c2ccccc2)c1CO | > 4 mM (inactive)
32 | Cc1cc(O)c(C)c(O)c1C(=O)O | > 4 mM (inactive)
33 | CCCS(=O)(=O)N1CCN(c2ccccn2)CC1 | > 4 mM (inactive)
34 | CC(=O)O[C@H]1C(=O)[C@@]2(C)C([C@H](OC(=O)c3ccccc3)[C@]3(O)C[C@H](OC(=O)[C@H](O)[C@@H](NC(=O)c4ccccc4)c4ccccc4)C(C)=C1C3(C)C)[C@]1(OC(C)=O)CO[C@@H]1C[C@@H]2O (stereo partly specified) | > 4 mM (inactive)
35 | CC(C)(C)c1ccc(SCC(N)=O)cc1 | > 4 mM (inactive)
36 | Cc1cc(N)no1 | > 4 mM (inactive)
37 | Nc1ncnc2c1ncn2[C@@H]1O[C@H](CO)[C@@H](O)[C@H]1O | > 4 mM (inactive)
38 | O=C1c2ccccc2C(=O)N1OCc1ccccc1 | > 4 mM (inactive)
39 | N=C1/C(=C\c2ccccc2)C(=O)N=C2SC=NN12 | > 4 mM (inactive)
40 | NC1CN2CCC1CC2 (stereo unspecified) | > 4 mM (inactive)
41 | CC1CC2(NC(=O)NC2=O)C(C)CN1C (stereo unspecified) | > 4 mM (inactive)
42 | NC(=O)c1ccc(NC(=O)C2CC2)cc1 | > 4 mM (inactive)

Row | Structure (SMILES) | Kd
43 | OC1CCCN(Cc2ccccc2)C1 (stereo unspecified) | > 4 mM (inactive)
44 | Cc1cc(C)n(-c2cccc3cccnc23)n1 | > 4 mM (inactive)
45 | Oc1ccc2nonc2c1 | > 4 mM (inactive)
46 | c1coc(CNc2ncnc3nc[nH]c23)c1 | > 4 mM (inactive)
47 | O=C1NC(=Nc2ccccc2Cl)SC1(CO)CO | > 4 mM (inactive)
48 | N#Cc1cccc(Cn2nnc(-c3ccccc3)n2)c1 | > 4 mM (inactive)
49 | COc1ccccc1NC(=O)NC(N)=O | > 4 mM (inactive)
50 | NC(=O)CCS(=O)(=O)CCN1CCOCC1 | > 4 mM (inactive)
51 | COC(=O)Cc1cccc(OC)c1 | > 4 mM (inactive)
52 | O=C(O)c1ccc(N2CCOCC2)nc1 | > 4 mM (inactive)
53 | O=C1c2ccccc2C(=O)N1Cc1ccco1 | > 4 mM (inactive)
54 | Nc1cccc(S(=O)(=O)N2CCOCC2)c1 | > 4 mM (inactive)
55 | COc1cc2c(cc1OC)[C@@H]1C(=O)c3ccc(O)c(CC=C(C)C)c3O[C@@H]1CO2 | > 4 mM (inactive)
56 | Cn1c([O-])c([N+](C)(C)C)c(=O)n(C)c1=O | > 4 mM (inactive)
57 | CC(=O)NC(=S)Nc1ccccc1N1CCOCC1 | > 4 mM (inactive)
58 | NC(=O)c1ccsc1NC(=O)c1ccco1 | > 4 mM (inactive)
59 | CC(C)C(=O)NCC(c1ccco1)N1CCOCC1 (stereo unspecified) | > 4 mM (inactive)
60 | NS(=O)(=O)c1ccc2c(c1)OCCO2 | > 4 mM (inactive)
61 | CN(C)S(=O)(=O)NCc1ccc2c(c1)OCO2 | > 4 mM (inactive)
